# Test system: up to 32 different microorganisms
# Assay: in vitro antibacterial activity (MIC), agar dilution on Brain Heart Infusion (BHI) agar with Steers replicator
# Assay type: cell-based
# Conditions: unit assumed
# How it was run: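 Twelve plates carried successive aqueous dilutions of test compound in BHI agar; inocula were 1:100 dilutions (1:10 for slow growers such as Micrococcus, Streptococcus), incubated 35°-37° C for 20 to 24 hours. MIC was the lowest concentration giving no growth, slight haze, or sparse isolated colonies versus growth control.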
# [1] = Candida albicans CCH 442 (code TT)
# [2] = Enterococcus faecism ATCC 8043 (code II)
# [3] = Escherichia coli DC-2 (code SS)
# [4] = Escherichia coli JUHL (code QQ)
# [5] = Micrococcus luteus ATCC 4698 (code PP)
# [6] = Micrococcus luteus ATCC 9341 (code OO)
# [7] = Mycobacterium smegmatis ATCC 114 (code UU)
# [8] = Nocardia Asteroides ATCC9970 (code VV)
# [9] = Staphylococcus aureus 1775 (code GG)
# [10] = Staphylococcus aureus A5177 (code BB)
# [11] = Staphylococcus aureus A-5278 (code CC)
# [12] = Staphylococcus aureus ATCC 6538P (code AA)
# [13] = Staphylococcus aureus CMX 553 (code FF)
# [14] = Staphylococcus aureus CMX 642A (code DD)
# [15] = Staphylococcus aureus NCTC10649M (code EE)
# [16] = Staphylococcus epidermidis 3519 (code HH)
# [17] = Streptococcus agalactiae CMX 508 (code KK)
# [18] = Streptococcus bovis A-5169 (code JJ)
# [19] = Streptococcus pyogenes 930 (code MM)
# [20] = Streptococcus pyogenes EES61 (code LL)
# [21] = Streptococcus pyogenes PIU 2548 (code NN)
smiles,measurement,setting,value
"CCC1OC(=O)C(C)C(=O)C(C)C(OC2OC(C)CC(N(C)C)C2O)C(C)(OCC(O)c2ccccc2)CC(C)C(=O)C(C)C2NC(=O)OC12C (single isomer, unassigned) [Example 261B]",MIC,organism code AA,3.1 µg/mL
same,MIC,organism code BB,3.1 µg/mL
same,MIC,organism code CC,> 100 µg/mL
same,MIC,organism code DD,6.2 µg/mL
same,MIC,organism code EE,3.1 µg/mL
same,MIC,organism code FF,3.1 µg/mL
same,MIC,organism code GG,> 100 µg/mL
same,MIC,organism code HH,6.2 µg/mL
same,MIC,organism code II,0.78 µg/mL
same,MIC,organism code JJ,0.39 µg/mL
same,MIC,organism code KK,0.39 µg/mL
same,MIC,organism code LL,0.39 µg/mL
same,MIC,organism code MM,> 100 µg/mL
same,MIC,organism code NN,0.78 µg/mL
same,MIC,organism code OO,0.39 µg/mL
same,MIC,organism code PP,1.56 µg/mL
same,MIC,organism code QQ,> 100 µg/mL
same,MIC,organism code RR,6.2 µg/mL
same,MIC,organism code SS,> 100 µg/mL
same,MIC,organism code TT,> 100 µg/mL
same,MIC,organism code UU,25 µg/mL
same,MIC,organism code VV,6.2 µg/mL
same,MIC,organism code WW,32 µg/mL
same,MIC,organism code XX,0.5 µg/mL
same,MIC,organism code YY,0.5 µg/mL
same,MIC,organism code ZZ,> 128 µg/mL
same,MIC,organism code ZZA,1 µg/mL
"CC[C@H]1OC(=O)[C@H](C)C(=O)[C@H](C)[C@@H](O[C@@H]2O[C@H](C)C[C@H](N(C)C)[C@H]2O)[C@@](C)(OCCNCCCc2cnc3ccccc3c2)C[C@@H](C)C(=O)[C@H](C)[C@H]2NC(=O)O[C@@]21C [Example 225, Compound of Formula (IX): L is CO, T is NH, R is —CH2CH2NHCH2CH2CH2-(3-quinolyl)]",MIC,organism code AA,0.2 µg/mL
same,MIC,organism code BB,0.39 µg/mL
same,MIC,organism code CC,> 100 µg/mL
same,MIC,organism code DD,0.39 µg/mL
same,MIC,organism code EE,0.39 µg/mL
same,MIC,organism code FF,0.1 µg/mL
same,MIC,organism code GG,> 100 µg/mL
same,MIC,organism code HH,0.2 µg/mL
same,MIC,organism code II,0.05 µg/mL
same,MIC,organism code JJ,0.01 µg/mL
same,MIC,organism code KK,0.01 µg/mL
same,MIC,organism code LL,0.01 µg/mL
same,MIC,organism code MM,> 100 µg/mL
same,MIC,organism code NN,0.39 µg/mL
same,MIC,organism code OO,0.02 µg/mL
same,MIC,organism code PP,0.1 µg/mL
same,MIC,organism code QQ,12.5 µg/mL
same,MIC,organism code RR,0.1 µg/mL
same,MIC,organism code SS,12.5 µg/mL
same,MIC,organism code TT,> 100 µg/mL
same,MIC,organism code UU,3.1 µg/mL
same,MIC,organism code VV,0.2 µg/mL
same,MIC,organism code WW,4 µg/mL
same,MIC,organism code XX,0.03 µg/mL
same,MIC,organism code YY,0.06 µg/mL
same,MIC,organism code ZZ,> 128 µg/mL
same,MIC,organism code ZZA,2 µg/mL
"CC[C@H]1OC(=O)[C@H](C)C(=O)[C@H](C)[C@@H](O[C@@H]2O[C@H](C)C[C@H](N(C)C)[C@H]2O)[C@@](C)(OCC=Cc2ccccc2)C[C@@H](C)C(=O)[C@H](C)[C@H]2NC(=O)O[C@@]21C [Example 103, Compound of Formula (IX): L is CO, T is NH, R is —CH2CH═CH-Phenyl]",MIC,[1],> 100 µg/mL
same,MIC,[2],0.05 µg/mL
same,MIC,[3],100 µg/mL
same,MIC,[4],100 µg/mL
same,MIC,Escherichia coli SS (code RR),0.39 µg/mL
same,MIC,Haemophilis influenzae DILL AMP R (code WW),4 µg/mL
same,MIC,[5],0.1 µg/mL
same,MIC,[6],0.01 µg/mL
same,MIC,[7],0.2 µg/mL
same,MIC,[8],0.02 µg/mL
same,MIC,[9],> 100 µg/mL
same,MIC,[10],0.1 µg/mL
same,MIC,[11],> 100 µg/mL
same,MIC,[12],0.1 µg/mL
same,MIC,[13],0.1 µg/mL
same,MIC,[14],0.1 µg/mL
same,MIC,[15],0.1 µg/mL
same,MIC,[16],0.1 µg/mL
same,MIC,Streptococcus Pneumonia 5649 (code ZZA),0.25 µg/mL
same,MIC,Streptococcus Pneumonia 5979 (code ZZ),128 µg/mL
same,MIC,Streptococcus Pneumonia ATCC6303 (code XX),0.03 µg/mL
same,MIC,Streptococcus Pneumonia GYR 1171 (code YY),0.03 µg/mL
same,MIC,[17],0.02 µg/mL
same,MIC,[18],0.01 µg/mL
same,MIC,[19],100 µg/mL
same,MIC,[20],0.02 µg/mL
same,MIC,[21],0.1 µg/mL
"CC[C@H]1OC(=O)[C@H](C)C(=O)[C@H](C)[C@@H](O[C@@H]2O[C@H](C)C[C@H](N(C)C)[C@H]2O)[C@@](C)(OCCNCc2cnc3ccccc3c2)C[C@@H](C)C(=O)[C@H](C)[C@H]2NC(=O)O[C@@]21C [Example 226, Compound of Formula (IX): L is CO, T is NH, R is —CH2CH2NHCH2(3-quinolyl)]",MIC,organism code AA,0.1 µg/mL
same,MIC,organism code BB,0.1 µg/mL
same,MIC,organism code CC,> 100 µg/mL
same,MIC,organism code DD,0.1 µg/mL
same,MIC,organism code EE,0.1 µg/mL
same,MIC,organism code FF,0.1 µg/mL
same,MIC,organism code GG,> 100 µg/mL
same,MIC,organism code HH,0.1 µg/mL
same,MIC,organism code II,0.05 µg/mL
same,MIC,organism code JJ,0.01 µg/mL
same,MIC,organism code KK,0.02 µg/mL
same,MIC,organism code LL,0.01 µg/mL
same,MIC,organism code MM,6.2 µg/mL
same,MIC,organism code NN,0.39 µg/mL
same,MIC,organism code OO,0.02 µg/mL
same,MIC,organism code PP,0.1 µg/mL
same,MIC,organism code QQ,6.2 µg/mL
same,MIC,organism code RR,0.2 µg/mL
same,MIC,organism code SS,12.5 µg/mL
same,MIC,organism code TT,> 100 µg/mL
same,MIC,organism code UU,9.78 µg/mL
same,MIC,organism code VV,0.05 µg/mL
same,MIC,organism code WW,2 µg/mL
same,MIC,organism code XX,0.03 µg/mL
same,MIC,organism code YY,0.03 µg/mL
same,MIC,organism code ZZ,> 128 µg/mL
same,MIC,organism code ZZA,2 µg/mL
"CCC1OC(=O)C(C)C(=O)C(C)C(OC2OC(C)CC(N(C)C)C2O)C(C)(OCC=Cc2ccc3ncccc3c2)CC(C)C(=O)C(C)C2NC(=O)OC12C (stereo not shown) [Example 194, R is —CH2CH═CH-(6-quinolyl)]",MIC,[1],> 100 µg/mL
same,MIC,[2],0.02 µg/mL
same,MIC,[3],100 µg/mL
same,MIC,[4],50 µg/mL
same,MIC,Escherichia coli SS (code RR),0.39 µg/mL
same,MIC,[5],0.1 µg/mL
same,MIC,[6],0.01 µg/mL
same,MIC,[7],0.78 µg/mL
same,MIC,[8],≤ 0.005 µg/mL
same,MIC,[9],> 100 µg/mL
same,MIC,[10],0.05 µg/mL
same,MIC,[11],> 100 µg/mL
same,MIC,[12],0.05 µg/mL
same,MIC,[13],0.05 µg/mL
same,MIC,[14],0.05 µg/mL
same,MIC,[15],0.1 µg/mL
same,MIC,[16],0.05 µg/mL
same,MIC,[17],0.01 µg/mL
same,MIC,[18],≤ 0.005 µg/mL
same,MIC,[19],0.78 µg/mL
same,MIC,[20],0.01 µg/mL
same,MIC,[21],0.05 µg/mL
